The values that follow come from US5169860A, “Antitumor compositions and methods of treatment” (Eli Lilly and Company, priority 1992, dated 1992).

The series deals with 6C3HED lymphosarcoma. The experiment in a line: animal or person. The settings on record: for Toxic/Total (mice which died relative to total number of animals in the group): mouse, in vivo. The series is classed as in vivo, C3H mice. Here is the method:
The compounds were tested in C3H mice bearing a 6C3HED lymphosarcoma, also known as the Gardner lymphosarcoma (GLS). The 6C3HED lymphosarcoma was obtained from the Division of Cancer Treatment, National Cancer Institute, Tumor Bank, maintained at E. G. and G. Mason Research (Worcester, Massachusetts).
First passage tumor was stored in liquid nitrogen using standard techniques. The transplanted tumor was reestablished from the Tumor Bank every six months or as needed. The tumor was maintained by serial passage twice weekly in C3H mice.
In the procedures utilized here, the tumor was removed from passage animals and minced into 1- to 3-mm cubic fragments using sterile techniques. Tumor pieces were checked for sterility using both Antibiotic Medium 1 and Brain Heart Infusion (Difco, Detroit, Michigan). The tumor pieces were implanted into the recipient C3H mice subcutaneously in an auxillary site by trochar.
Drug therapy on the appropriate schedule was initiated seven days after tumor implantation. The compound being tested was mixed with 2.5% Emulphor EL620 from GAF Corporation (1:40 dilution in 0.9% saline). The total dosage volume for each administration was 0.5 mL. All animals were weighed at the beginning and end of administration of the subject compounds. Food and water were provided ad libitum
Each control group and each dosage level of the treated groups generally consisted of 10 mice selected at random from the pool of implanted animals. The formulations were administered orally by gavage with the use of an 18-gauge needle. Compounds were dosed daily for 10 days.
The tumor was measured five days after treatment ended with two dimensional measurements (width and length) of the tumor taken using digital electronic calipers interfaced to a microcomputer. J. F. Worzalla, et al.. Investicational New Drugs. 8:241-251 (1990). Tumor weights were calculated from these measurements using the following formula:
Tumor weight (mg)=[tumor length (mm)×[tumor width (mm)]2].div.2
At least one control group of an equal number of mice was treated with the same volume of 2.5% Emulphor only. The percent inhibition was determined by subtracting the ratio of the mean tumor size of the test group relative to the control group from one and multiplying the result by 100.
The results of several experiments in mice bearing the 6C3HED lymphosarcoma when the instant compounds were administered orally are provided in the following table. In this table, column 1 gives the example number of the compound of Formula I administered; column 2 gives the dosage level of the compound in milligrams per kilogram of body weight; column 3 describes the percent inhibition of tumor growth; and column 4 tallies the number of mice which died during the course of the experiment relative to the total number of animals in the group.

Where [1] appears, read: Mus musculus, 6C3HED, 120 h, oral gavage, daily for 10 days, tumor measured five days after treatment ended, read-out: Percent Inhibition of tumor growth.
Where [2] appears, read: Mus musculus, 6C3HED, 240 h, second listing (groups of 8), oral gavage, daily for 10 days, read-out: Percent Inhibition of tumor growth.

Molecules are shown by their SMILES. Read-outs that look alike come from different tables or passages of the source.

`O=C(Nc1ccc(Cl)cc1)NS(=O)(=O)c1cc2ccccc2o1` [Example 1, N-[[(4-chlorophenyl)amino]carbonyl]-2-benzofuransulfonamide]: the “Toxic/Total (mice which died relative to total number of animals in the group)” value is given as 4/10. For the same molecule, the inhibition in vivo at 150 mg/kg under setting [1] stood at 84%.

Take `Cc1ccc(NC(=O)NS(=O)(=O)c2cc3ccccc3o2)cc1` [Example 2, N-[[(4-methylphenyl)amino]carbonyl]-2-benzofuransulfonamide]: the “Toxic/Total (mice which died relative to total number of animals in the group)” value was 0/10. Besides, under setting [1], the inhibition in vivo at 150 mg/kg is 11% and the inhibition in vivo at 300 mg/kg was found to be 37%.

`O=C(Nc1ccc(Cl)c(Cl)c1)NS(=O)(=O)c1cc2ccccc2o1` [Example 3, N-[[(3,4 dichlorophenyl)amino]carbonyl]-2-benzofuransulfonamide]: under setting [1], the inhibition in vivo at 150 mg/kg worked out at 28% and the inhibition in vivo at 300 mg/kg came out at 28%.

For the molecule `O=C(Nc1ccc(Br)cc1)NS(=O)(=O)c1cc2ccccc2o1` [Example 4, N-[[(4-bromophenyl)amino]carbonyl]-2-benzofuransulfonamide], the “Toxic/Total (mice which died relative to total number of animals in the group)” value is on record as 1/10. In addition, the inhibition in vivo at 150 mg/kg under setting [1] was 48%.

In the case of `O=C(Nc1ccc(Cl)cc1)NS(=O)(=O)c1cccc2occc12` [Example 5, N-[[(4-chlorophenyl)amino]carbonyl]-4-benzofuransulfonamide], under setting [1], the inhibition in vivo at 150 mg/kg amounted to 84% and the inhibition in vivo at 300 mg/kg was 100%.

Turning to `O=C(Nc1ccc(Cl)cc1)NS(=O)(=O)c1ccc2occc2c1` [Example 6, N-[[(4-chlorophenyl)amino]carbonyl]-5-benzofuransulfonamide hemihydrate], the inhibition in vivo at 10 mg/kg (Mus musculus, 6C3HED, 120 h, 10 mg/kg, oral gavage, daily for 10 days, tumor measured five days after treatment ended, read-out: Percent Inhibition of tumor growth) came to 0%. Also, under setting [1], the inhibition in vivo at 20 mg/kg stood at 7%, the inhibition in vivo at 40 mg/kg turned out to be 53%, the inhibition in vivo at 80 mg/kg was determined as 96% and the inhibition in vivo at 150 mg/kg worked out at 100%.

`Cc1ccc(NC(=O)NS(=O)(=O)c2ccc3occc3c2)cc1` [Example 7, N-[[(4-methylphenyl)amino]carbonyl]-5-benzofuransulfonamide]: under setting [1], the inhibition in vivo at 150 mg/kg came out at 84% and the inhibition in vivo at 300 mg/kg worked out at 100%.

For `O=C(Nc1ccc(Cl)cc1)NS(=O)(=O)c1ccc2ccoc2c1` [Example 8, N-[[(4-chlorophenyl)amino]carbonyl]-6-benzofuransulfonamide], under setting [1], the inhibition in vivo at 20 mg/kg was 45%, the inhibition in vivo at 40 mg/kg was found to be 45% and the inhibition in vivo at 80 mg/kg was 93%. Also, the inhibition in vivo at 160 mg/kg (Mus musculus, 6C3HED, 120 h, 160 mg/kg, oral gavage, daily for 10 days, tumor measured five days after treatment ended, read-out: Percent Inhibition of tumor growth) turned out to be 100%. In addition, under setting [2], the inhibition in vivo at 40 mg/kg was 92% and the inhibition in vivo at 80 mg/kg came to 98%.

As for `O=C(Nc1ccc(Cl)cc1)NS(=O)(=O)c1cc2ccccc2[nH]1` [Example 9, N-[[(4-chlorophenyl)amino]carbonyl]-lH-indole-2-sulfonamide], under setting [1], the inhibition in vivo at 150 mg/kg was determined as 26% and the inhibition in vivo at 300 mg/kg was found to be 57%.

For the molecule `O=C(Nc1ccc(Cl)cc1)NS(=O)(=O)c1ccc2cc[nH]c2c1` [Example 10, N-[[(4-chlorophenyl)amino]carbonyl]-lH-indole-6-sulfonamide], the “Toxic/Total (mice which died relative to total number of animals in the group)” value is 0/10. Besides, under setting [1], the inhibition in vivo at 150 mg/kg is 37% and the inhibition in vivo at 300 mg/kg is 80%.

`O=C(Nc1ccc(Cl)cc1)NS(=O)(=O)c1cc2ccccc2s1` [Example 11, N-[[(4-chlorophenyl)amino]carbonyl]benzo[B]thiophene-2-sulfonamide]: under setting [1], the inhibition in vivo at 150 mg/kg came out at 47% and the inhibition in vivo at 300 mg/kg is 66%.

Take `O=C(Nc1ccc(Cl)cc1)NS(=O)(=O)c1csc2ccccc12` [Example 12, N-[[(4-chlorophenyl)amino]carbonyl]benzo[B]thiophene-3-sulfonamide]: the “Toxic/Total (mice which died relative to total number of animals in the group)” value was 0/10. Besides, under setting [1], the inhibition in vivo at 150 mg/kg came out at 43% and the inhibition in vivo at 300 mg/kg was determined as 69%.

Take `O=C(Nc1ccc(Cl)cc1)NS(=O)(=O)c1ccc2sccc2c1` [Example 13, N-[[(4-chlorophenyl)amino]carbonyl]benzo[B]thiophene-5-sulfonamide]: the “Toxic/Total (mice which died relative to total number of animals in the group)” value is on record as 0/8. Also, under setting [1], the inhibition in vivo at 40 mg/kg worked out at 8% and the inhibition in vivo at 80 mg/kg was found to be 44%.
